Laboratory results from US20010007679A1, “(S,R) FORMOTEROL METHODS AND COMPOSITIONS” (priority 1999, published 2001).

Tests used:
[1] = molecular target: human β1-adrenergic receptor (Homo sapiens, UniProt P08588); assay: Second series: binding competition, human β1; details: for IC50: IC50 (nM) β1, Second series (human)
[2] = molecular target: human β2-adrenergic receptor (Homo sapiens, UniProt P07550); assay: Second series: binding competition, human β2; details: for IC50: IC50 (nM) β2, Second series (human); for β2 Selectivity (β1/β2): Second series (human)
Method: (R,S)- and (S,R)-desformoterol were screened, in duplicate at three concentrations (10^−9, 10^−7, 10^−5 M), for binding to human β1 and β2-adrenergic receptors. Compounds that inhibited specific binding ≧50% were then tested further at ten concentrations in duplicate in order to obtain full competition curves. Reference compounds were simultaneously tested at eight concentrations.

[3] = tested on: BEAS-2B cells; assay: Intrinsic activity: cAMP production by radioimmunoassay; type: cell-based; details: 100-times the Kd concentration, relative to isoproterenol (set to 1.0)
Method: The assessment of intrinsic activity was evaluated in BEAS-2B cells grown to confluence. […] Samples were assayed for cAMP by radioimmunoassay.

Sequence of human β2-adrenergic receptor (P07550 whole entry): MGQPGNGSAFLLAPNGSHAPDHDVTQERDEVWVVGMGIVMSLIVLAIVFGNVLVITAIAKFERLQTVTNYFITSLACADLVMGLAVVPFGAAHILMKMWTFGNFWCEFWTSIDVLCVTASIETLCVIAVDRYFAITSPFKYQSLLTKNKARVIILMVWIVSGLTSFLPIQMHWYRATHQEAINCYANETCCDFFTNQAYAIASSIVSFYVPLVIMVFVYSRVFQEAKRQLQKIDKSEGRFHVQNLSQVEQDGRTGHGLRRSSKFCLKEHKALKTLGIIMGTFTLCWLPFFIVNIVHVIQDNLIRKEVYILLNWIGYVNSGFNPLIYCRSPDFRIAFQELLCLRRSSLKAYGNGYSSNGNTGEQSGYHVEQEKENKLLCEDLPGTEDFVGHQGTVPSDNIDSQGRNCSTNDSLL
Sequence of human β1-adrenergic receptor (P08588 whole entry): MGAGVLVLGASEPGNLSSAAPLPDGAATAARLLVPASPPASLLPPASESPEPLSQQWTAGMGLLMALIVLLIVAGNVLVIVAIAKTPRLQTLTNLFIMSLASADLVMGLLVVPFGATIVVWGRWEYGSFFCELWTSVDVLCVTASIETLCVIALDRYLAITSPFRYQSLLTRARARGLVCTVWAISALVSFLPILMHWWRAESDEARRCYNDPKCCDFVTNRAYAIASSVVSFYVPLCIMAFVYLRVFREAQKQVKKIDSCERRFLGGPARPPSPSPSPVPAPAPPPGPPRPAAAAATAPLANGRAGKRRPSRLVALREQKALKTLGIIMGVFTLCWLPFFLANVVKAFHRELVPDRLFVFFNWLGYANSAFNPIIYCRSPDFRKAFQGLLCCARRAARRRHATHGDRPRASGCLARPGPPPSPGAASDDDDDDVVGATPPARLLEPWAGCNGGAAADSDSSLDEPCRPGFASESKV

SMILES | IC50 [1] | IC50 [2] | β2 Selectivity (β1/β2) [2] | Intrinsic Activity (cAMP) [3] | inhibition at 10 µM ([1]; read-out: inhibition of specific binding at β1)
COc1ccc(CC(C)NCC(O)c2ccc(O)c(N)c2)cc1 (single isomer, unassigned) [(R,R)-Desformoterol, 3-Amino-4-hydroxy-α-[[[2-(4-methoxyphenyl)-1-methylethyl]amino]methyl]-benzenemethanol] | 3180 nM | 35.6 nM | 89 | – | –
COc1ccc(CC(C)NCC(O)c2ccc(O)c(N)c2)cc1 (single isomer, unassigned) [(R,S)-Desformoterol, 3-Amino-4-hydroxy-α-[[[2-(4-methoxyphenyl)-1-methylethyl]amino]methyl]-benzenemethanol] | 1790 nM | 3140 nM | 0.6 | – | –
COc1ccc(CC(C)NCC(O)c2ccc(O)c(N)c2)cc1 (single isomer, unassigned) [(S,S)-Desformoterol, 3-Amino-4-hydroxy-α-[[[2-(4-methoxyphenyl)-1-methylethyl]amino]methyl]-benzenemethanol] | 64700 nM | > 10000 nM | – | – | –
CC(C)(C)NC[C@H](O)c1ccc(O)c(CO)c1 [(R)-Albuterol] | – | – | – | 0.44 | –
COc1ccc(CC(C)NCC(O)c2ccc(O)c(N)c2)cc1 [(R,R/S,S)-Desformoterol, 3-Amino-4-hydroxy-α-[[[2-(4-methoxyphenyl)-1-methylethyl]amino]methyl]-benzenemethanol] | 5140 nM | 81.3 nM | 63 | – | –
COc1ccc(C[C@@H](C)NCC(O)c2ccc(O)c(N)c2)cc1 (stereo partly drawn) [(S,R)-Desformoterol, 3-Amino-4-hydroxy-α-[[[2-(4-methoxyphenyl)-1-methylethyl]amino]methyl]-benzenemethanol] | – | 1830 nM | – | – | 22%
CC(C)NCC(O)c1ccc(O)c(O)c1 (stereo not drawn) [Isoproterenol] | – | – | – | 1.00 | –
